Data taken from PMC12628701, “Paroxysmal Nocturnal Hemoglobinuria in Pregnancy Treated With Pegcetacoplan: Case Report and Pharmacokinetic Analysis” (EJHaem, 2025).

Tests used:
[1] = Pegcetacoplan concentration in umbilical cord blood plasma (placental transfer, LC-MS/MS); assay type: in vivo, human; conditions: umbilical vein at delivery, LLOQ 10 µg/mL
Protocol: (§1) Maternal blood samples were obtained during routine collections pre‐ and postpartum. Cord blood samples were obtained from the umbilical vein at the time of delivery. Breast milk samples were collected on postpartum Days 1 and 2. Quantitative analysis of pegcetacoplan concentrations in maternal plasma, umbilical cord blood plasma, and breast milk was performed by an independent, accredited laboratory (Q^2 Solutions BioSciences, USA) using a validated liquid chromatography‐tandem mass spectrometry method incorporating pegcetacoplan‐d22 as internal standard, with lower limits of quantification of 10 and 20 µg/mL for plasma and breast milk, respectively.

[2] = system: patient with hemolytic PNH; assay: Hematological response (hemoglobin, hemolytic markers, transfusion requirements) in pregnant patient with PNH; assay type: in vivo, human; conditions: for Hapto: normal 0.3–2.0; for ARC: normal 10–100; for Hb: normal 115–160; for Bili: normal ≤ 21; for LDH: normal ≤ 214
Protocol: Prophylactic‐dose dalteparin was prescribed. […] Informed consent was obtained for off‐label use in pregnancy, pharmacokinetic sampling, and case reporting. Institutional ethics board review exemption was granted for this single‐patient case report.
(§2) Maternal and fetal outcomes were assessed throughout the third trimester and postpartum. Hematological response was evaluated using serial measurements of hemoglobin, hemolytic markers, and transfusion requirements. Complement levels/activity were measured using immunoturbidimetric assays for C3/C4 (Roche Diagnostics, Germany), and 50% hemolytic complement (CH50) by turbidimetric assay (Optilite, Binding Site, UK). Maternal clinical monitoring included evaluation for breakthrough hemolysis, thrombotic events, and other adverse events. Neonatal outcomes included gestational age at delivery, mode of delivery, birth weight, Apgar scores, and any complications identified during birth, hospitalization, or early follow‐up.

[3] = Pegcetacoplan concentration in breast milk (lactational transfer, LC-MS/MS); assay type: in vivo, human
Protocol: as §1

[4] = Pegcetacoplan concentration in maternal plasma (LC-MS/MS); assay type: in vivo, human; conditions: LLOQ 10 µg/mL
Protocol: as §1

[5] = system: complement C3, C4, CH50; assay: Complement levels/activity (C3/C4 immunoturbidimetric, CH50 turbidimetric) in patient; assay type: in vivo, human; conditions: for CH50: normal 42–95; for C4: normal 0.1–0.4; for C3: normal 0.9–1.8
Protocol: as §2

[6] = system: hemoglobin response; conditions: plasma concentration; no reference given; cited from earlier work
Protocol: Pegcetacoplan was undetectable in all three cord blood samples (< 10 µg/mL), with no identifiable mass spectrometry peaks, indicating no measurable transplacental drug transfer. Pegcetacoplan was likewise not detected in breast milk, with concentrations below the lower limit of quantification (< 20 µg/mL, Table 2).

[7] = system: patient with hemolytic PNH and infant; assay: Clinical tolerability and neonatal outcomes; assay type: in vivo, human
Protocol: as §2

[8] = system: cynomolgus monkeys; conditions: cynomolgus monkey, in vivo; cited from earlier work
Description: In our case, pegcetacoplan was undetectable in all cord blood and breast milk samples, ...

[9] = 3 + 5 w gestation, on pegcetacoplan before switch to eculizumab
[10] = 28 + 1 w, date of pegcetacoplan reinitiation
[11] = 30 + 3 w, pegcetacoplan overlapping with eculizumab
[12] = 33 w, pegcetacoplan, dose escalation
[13] = 35 + 6 w, pegcetacoplan 1080 mg three times weekly
[14] = 37 + 2 w, date of delivery, pegcetacoplan
[15] = 37 w, pegcetacoplan 1080 mg three times weekly
[16] = after reinitiation of pegcetacoplan at 28 weeks' gestation
[17] = before pregnancy, pegcetacoplan 1080 mg subcutaneous twice-weekly
[18] = later the same day following delivery

## pegcetacoplan
[1]
  Concentration, cord blood plasma, Sample 1: < LLOQ
  Concentration, cord blood plasma, Sample 2: < LLOQ
  Concentration, cord blood plasma, Sample 3: < LLOQ
[2]; [9]
  Hapto: 1.85 g/L
  ARC: 8e+10 L⁻¹
  Hb: 109 g/L
  Bili: 7 µmol/L
  LDH: 153 U/L
[2]; [10]
  ARC: 1.73e+11 L⁻¹
  Hb: 87 g/L
  Bili: 12 µmol/L
  LDH: 208 U/L
[2]; [11]
  ARC: 1.72e+11 L⁻¹
  Hb: 93 g/L
  Bili: 9 µmol/L
  LDH: 205 U/L
[2]; [12]
  Hapto: 0.89 g/L
  ARC: 1.74e+11 L⁻¹
  Hb: 96 g/L
  Bili: 7 µmol/L
  LDH: 215 U/L
[2]; [13]
  Hapto: 0.84 g/L
  ARC: 1.78e+11 L⁻¹
  Hb: 103 g/L
  Bili: 4 µmol/L
  LDH: 208 U/L
[2]; [14]
  ARC: 1.2e+11 L⁻¹
  Hb: 102 g/L
  Bili: 3 µmol/L
  LDH: 210 U/L
[2]; [15]
  Hapto: 0.1 g/L
  ARC: 1.29e+11 L⁻¹
  Hb: 103 g/L
  Bili: 3 µmol/L
  LDH: 231 U/L
[2]; PP 6 w, pegcetacoplan
  ARC: 1.46e+11 L⁻¹
  Hb: 107 g/L
  Bili: 4 µmol/L
  LDH: 203 U/L
[2]; PP 1 d, pegcetacoplan
  ARC: 1.03e+11 L⁻¹
  Hb: 88 g/L
  Bili: 3 µmol/L
  LDH: 378 U/L
[2]; PP 2 d, pegcetacoplan
  ARC: 1.07e+11 L⁻¹
  Hb: 86 g/L
  Bili: 3 µmol/L
  LDH: 351 U/L
[2]; PP 3 d, pegcetacoplan
  ARC: 1.06e+11 L⁻¹
  Hb: 86 g/L
  Bili: 3 µmol/L
  LDH: 327 U/L
[2]; PP 10 d, pegcetacoplan
  Hapto: 1.34 g/L
  ARC: 9.7e+10 L⁻¹
  Hb: 89 g/L
  Bili: 4 µmol/L
  LDH: 280 U/L
[2]; [16]
  Hemoglobin (range) during the third trimester: 92 to 103 g/L
  Transfusions after resumption: no transfusions required
[2]; [17]
  Hemoglobin stabilization: approximately 110 g/L
  Transfusion status: achieved transfusion independence
[3]; postpartum Day 1, LLOQ 20 µg/mL
  Concentration, breast milk, Sample 1: < LLOQ
[3]; postpartum Day 2, LLOQ 20 µg/mL
  Concentration, breast milk, Sample 2: < LLOQ
[4]; [18]
  Concentration, maternal plasma, Sample 2: 625 µg/mL
  Concentration, maternal plasma, Sample 3: 587 µg/mL
[4]; morning prior to scheduled cesarean delivery, pegcetacoplan 1080 mg s.c. three times weekly
  Concentration, maternal plasma, Sample 1: 719 µg/mL
[5]; [12]
  CH50: 17 U/mL
[5]; [13]
  C4: 0.43 g/L
  C3: 4.9 g/L
  CH50: 102 U/mL
[5]; [14]
  C4: 0.37 g/L
  C3: 4.7 g/L
  CH50: 88 U/mL
[5]; [15]
  CH50: 82 U/mL
[5]; PP 6 w, pegcetacoplan
  CH50: 99 U/mL
[5]; PP 1 d, pegcetacoplan
  C4: 0.34 g/L
  C3: 4.33 g/L
  CH50: 86.0 U/mL
[5]; PP 2 d, pegcetacoplan
  C4: 0.35 g/L
  C3: 4.5 g/L
  CH50: > 103 U/mL
[5]; PP 3 d, pegcetacoplan
  C4: 0.36 g/L
  C3: 4.44 g/L
  CH50: 97 U/mL
[6]
  EC99, effective concentration for maximum hemoglobin response: 597 µg/mL
[7]; infant exposed in partial first and full third trimester, 10-month follow-up
  Infant complications: no complications observed
[8]
  Fetal loss: increased fetal loss
  Maternal toxicity or teratogenicity: no evidence
  Placental and breast milk transfer: minimal

## CCO[C@H]1CCN(Cc2c(OC)cc(C)c3[nH]ccc23)[C@H](c2ccc(C(=O)O)cc2)C1 [iptacopan]
[7]; before pregnancy, nausea unresponsive to antiemetics
  Tolerability: discontinued due to persistent nausea
